According to patent publication US5639783A, “Ketone derivatives” (Mitsubishi Chemical Corporation, priority 1991, dated 1997):

Key:
[1] = biological target: T1, m-calpain (Rattus norvegicus, UniProt Q07009); test: Thiol protease inhibitory activity, m-calpain purified from rat brain; type: biochemical; conditions: Table 3
T1 construct: m-calpain was purified from rat brain; from tissue; host or cells: rat brain
T1 sequence (Q07009 20-700 limits assumed): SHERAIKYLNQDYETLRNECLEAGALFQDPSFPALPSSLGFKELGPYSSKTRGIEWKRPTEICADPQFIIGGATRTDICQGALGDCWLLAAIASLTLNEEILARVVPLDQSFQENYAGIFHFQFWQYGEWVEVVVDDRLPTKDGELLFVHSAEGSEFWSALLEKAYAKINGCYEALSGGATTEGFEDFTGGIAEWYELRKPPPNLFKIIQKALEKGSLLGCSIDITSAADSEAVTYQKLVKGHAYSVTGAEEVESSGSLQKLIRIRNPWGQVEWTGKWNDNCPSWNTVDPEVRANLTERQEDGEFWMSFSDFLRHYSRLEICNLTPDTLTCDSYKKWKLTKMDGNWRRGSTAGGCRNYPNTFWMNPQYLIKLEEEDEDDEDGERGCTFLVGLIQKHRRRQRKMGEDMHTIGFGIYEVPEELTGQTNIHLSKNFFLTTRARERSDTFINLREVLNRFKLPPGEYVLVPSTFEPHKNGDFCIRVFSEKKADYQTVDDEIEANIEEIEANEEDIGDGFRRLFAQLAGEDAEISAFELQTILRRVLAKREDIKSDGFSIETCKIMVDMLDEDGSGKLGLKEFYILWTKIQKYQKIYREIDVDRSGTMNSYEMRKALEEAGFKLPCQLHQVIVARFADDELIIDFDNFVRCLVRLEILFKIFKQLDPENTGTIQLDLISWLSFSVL
T1 sequence (Q64537 1-270 partner): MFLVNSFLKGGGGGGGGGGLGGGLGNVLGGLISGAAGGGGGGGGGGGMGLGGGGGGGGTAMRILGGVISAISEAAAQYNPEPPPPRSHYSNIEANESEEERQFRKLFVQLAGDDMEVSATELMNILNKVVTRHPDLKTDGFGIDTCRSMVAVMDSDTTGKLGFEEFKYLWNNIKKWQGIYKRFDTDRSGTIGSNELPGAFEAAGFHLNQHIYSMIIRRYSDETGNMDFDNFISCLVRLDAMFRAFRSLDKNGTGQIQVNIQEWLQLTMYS
Summary of the method: (§1)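 Papain and bovine cathepsin B assayed by a published method; cathepsin L purified from rat kidney and assayed in the same manner as cathepsin B. m-Calpain purified from rat brain and assayed by a separate published procedure.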

[2] = biological target: T2, cathepsin B (Bos taurus, UniProt P07688); test: Thiol protease inhibitory activity, cathepsin B (C-6286, Sigma); type: biochemical; conditions: Table 3
T2 construct: purchased Sigma C-6286
Summary of the method: as §1

[3] = biological target: T3, cathepsin L (Rattus norvegicus, UniProt P07154); test: Thiol protease inhibitory activity, cathepsin L purified from rat kidney; type: biochemical; conditions: Table 3
T3 construct: Cathepsin L was purified from rat kidney; from tissue; host or cells: rat kidney
Summary of the method: as §1

[4] = in vivo; conditions: rat, po
Description: The LD50 value of the compound prepared in Example 94 was: >2,000 mg/kg.

[5] = biological target: T4, papain (Carica papaya, UniProt P00784); test: Thiol protease inhibitory activity, papain (P-3125, Sigma); type: biochemical
T4 sequence (P00784 134-345): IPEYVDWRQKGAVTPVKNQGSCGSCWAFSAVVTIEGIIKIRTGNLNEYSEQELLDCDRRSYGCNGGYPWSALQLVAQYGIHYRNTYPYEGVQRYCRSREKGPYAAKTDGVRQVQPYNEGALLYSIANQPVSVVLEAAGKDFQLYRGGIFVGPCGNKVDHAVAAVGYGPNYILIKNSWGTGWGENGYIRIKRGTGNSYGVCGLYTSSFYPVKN
Summary of the method: as §1

[6] = system: microtubule-associated protein; conditions: Brain Research, 526, p. 177 (1990); cited from earlier work
[7] = system: aggregation of platelet; conditions: Thrombosis Research, 57, p. 847 (1990); cited from earlier work
[8] = system: experimental muscular dystrophy hamster; conditions: Journal of Pharmacobio dynamics, 10, 678 (1987); cited from earlier work
[9] = system: cardiac infarction animal models; conditions: Arzneimittel Forschung/Drug Research, 36 (1986); cited from earlier work
[10] = system: axon in brain trauma models of rat; conditions: Journal of Neurosurgery, 65, p. 92 (1986); cited from earlier work

T3 sequence (P07154 114-334): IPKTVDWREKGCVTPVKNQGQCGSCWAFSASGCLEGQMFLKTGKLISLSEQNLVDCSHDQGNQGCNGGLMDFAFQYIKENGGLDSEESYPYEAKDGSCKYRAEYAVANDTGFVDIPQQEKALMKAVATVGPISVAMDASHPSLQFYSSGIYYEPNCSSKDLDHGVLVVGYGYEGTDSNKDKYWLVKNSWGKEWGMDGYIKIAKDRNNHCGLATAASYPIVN

Compound: CCCC[C@H](NC(=O)[C@H](CC(C)C)NC(=O)c1cc(=O)c2ccccc2o1)C(=O)CSCc1ccco1 [94 (No. 188), (s)-1-furfurylthio-3-[(s)-4-methyl-2-(4-oxo-4H-1-benzopyranylcarbonylamino)valerylamino]-2-heptanone]
- IC50 [1]: 9200 nM
- IC50 [2]: 1100 nM
- IC50 [3]: 24 nM
- LD50 at 168 h [4]: > 2000 mg/kg
- IC50 [5]: 770 nM

Compound: CC(C)CCNC(=O)[C@H](CC(C)C)NC(=O)[C@H]1O[C@@H]1C(=O)O [E-64-C]
- degradation of microtubule-associated protein after brain ischemia [6]: inhibits the degradation of microtubule-associated protein after the brain ischemia

Compound: CCOC(=O)[C@H]1O[C@@H]1C(=O)N[C@@H](CC(C)C)C(=O)NCCC(C)C [E-64-d]
- aggregation of platelet caused by thrombin [7]: suppressed aggregation of platelet caused by thrombin
- effect in experimental muscular dystrophy hamster [8]: life-prolonging effect

Compound: CCOC(=O)[C@@H]1O[C@H]1C(=O)NC(CC(C)C)C(=O)N1CCN(Cc2ccc(OC)c(OC)c2OC)CC1.CCOC(=O)[C@@H]1O[C@H]1C(=O)NC(CC(C)C)C(=O)N1CCN(Cc2ccc(OC)c(OC)c2OC)CC1.O=S(=O)(O)O (stereo partly shown) [NCO-700]
- effect on cardiac infarction [9]: effective on cardiac infarction

Compound: CC(=O)N[C@@H](CC(C)C)C(=O)N[C@@H](CC(C)C)C(=O)N[C@H](C=O)CCCNC(=N)N [leupeptin]
- protection of axon in brain trauma models [10]: can protect axon
